Results as given in ChEMBL document CHEMBL5038591, “Identification of a Novel TAR RNA-Binding Protein 2 Modulator with Potential Therapeutic Activity against Hepatocellular Carcinoma” (J Med Chem, 2021).
Calls of active or inactive are those of the source. The rule behind the calls is not given here.

What was measured:
[1] = Antiproliferative activity against human QSG7701 cells incubated for 24 hrs by alamar blue assay; assay type: functional, cell-based; settings: QSG7701, 24 h
SK-HEP1 [2] = experiment: Antiproliferative activity against human SK-HEP1 cells incubated for 24 hrs by alamar blue assay; assay type: functional, cell-based; settings: SK-HEP1, 24 h
Homo sapiens = species on record: Homo sapiens; experiment: Binding affinity to PIWIL3 (unknown origin) at 30 uM incubated for 2 hrs by pull down assay
SK-HEP1 [3] = experiment: Antiproliferative activity against human SK-HEP1 cells at 20 uM measured by crystal violet dye based colony formation assay; assay type: functional, cell-based
SK-HEP1 [4] = experiment: Inhibition of cell migration in human SK-HEP1 cells assessed as reduction in cell migration at 20 uM measured after 12 hrs using crystal violet staining inverted microscope based transwell assay; assay type: functional
[5] = target: DNA topoisomerase 2-beta (Homo sapiens) (UniProt Q02880); experiment: Binding affinity to TOP2B (unknown origin) at 30 uM incubated for 2 hrs by pull down assay
DNA topoisomerase 2-beta (Homo sapiens), sequence (Q02880 whole entry): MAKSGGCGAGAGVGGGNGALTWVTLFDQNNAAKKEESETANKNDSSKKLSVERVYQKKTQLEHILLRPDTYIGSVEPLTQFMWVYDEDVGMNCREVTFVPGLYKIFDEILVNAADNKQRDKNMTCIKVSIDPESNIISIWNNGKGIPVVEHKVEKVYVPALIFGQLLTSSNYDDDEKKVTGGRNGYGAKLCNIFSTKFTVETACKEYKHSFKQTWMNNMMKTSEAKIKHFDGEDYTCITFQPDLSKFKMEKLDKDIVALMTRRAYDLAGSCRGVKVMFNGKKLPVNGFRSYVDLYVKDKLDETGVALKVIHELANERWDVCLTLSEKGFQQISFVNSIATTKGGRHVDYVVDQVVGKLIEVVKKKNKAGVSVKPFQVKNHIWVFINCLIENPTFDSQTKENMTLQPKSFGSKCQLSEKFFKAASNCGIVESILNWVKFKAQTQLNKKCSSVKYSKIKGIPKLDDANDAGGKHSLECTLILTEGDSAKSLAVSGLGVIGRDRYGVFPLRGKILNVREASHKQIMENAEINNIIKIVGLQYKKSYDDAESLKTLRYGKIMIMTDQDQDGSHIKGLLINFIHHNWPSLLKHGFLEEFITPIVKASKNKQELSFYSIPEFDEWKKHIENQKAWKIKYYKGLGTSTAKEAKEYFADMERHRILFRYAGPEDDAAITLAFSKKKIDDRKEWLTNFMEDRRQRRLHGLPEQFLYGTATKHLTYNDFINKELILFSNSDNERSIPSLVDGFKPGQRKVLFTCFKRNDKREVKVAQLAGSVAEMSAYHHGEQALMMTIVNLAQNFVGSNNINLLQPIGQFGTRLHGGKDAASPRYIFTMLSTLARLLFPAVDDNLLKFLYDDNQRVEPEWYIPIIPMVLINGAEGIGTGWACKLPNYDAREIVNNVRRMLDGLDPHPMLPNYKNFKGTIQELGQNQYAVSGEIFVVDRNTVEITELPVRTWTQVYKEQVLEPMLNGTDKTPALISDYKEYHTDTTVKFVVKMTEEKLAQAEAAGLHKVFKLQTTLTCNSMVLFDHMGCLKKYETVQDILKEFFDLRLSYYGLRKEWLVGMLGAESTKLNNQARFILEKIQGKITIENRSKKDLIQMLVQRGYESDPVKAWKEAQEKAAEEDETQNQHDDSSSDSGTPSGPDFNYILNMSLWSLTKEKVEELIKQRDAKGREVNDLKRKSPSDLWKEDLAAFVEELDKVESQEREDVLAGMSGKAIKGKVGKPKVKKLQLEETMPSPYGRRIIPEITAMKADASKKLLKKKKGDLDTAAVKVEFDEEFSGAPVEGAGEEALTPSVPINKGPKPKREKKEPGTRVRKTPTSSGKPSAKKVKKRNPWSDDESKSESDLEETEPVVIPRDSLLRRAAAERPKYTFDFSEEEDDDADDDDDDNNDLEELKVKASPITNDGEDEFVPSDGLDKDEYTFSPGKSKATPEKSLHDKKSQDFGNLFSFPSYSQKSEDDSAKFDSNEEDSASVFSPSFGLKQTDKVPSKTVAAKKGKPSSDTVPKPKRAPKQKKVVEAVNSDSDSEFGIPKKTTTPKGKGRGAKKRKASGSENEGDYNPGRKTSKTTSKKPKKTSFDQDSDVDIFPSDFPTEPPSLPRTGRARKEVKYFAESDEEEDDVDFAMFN

HeLa [6] = experiment: Antiproliferative activity against human HeLa cells assessed as increase in miR-21 biogenesis level measured after 24 hrs by luciferase assay; assay type: functional, cell-based
MHCC97 [7] = experiment: Antitumor activity against human MHCC97 cells xenografted in SCID mouse assessed as decrease in tumor size at 20 mg/kg, ip administered once every 3 days and measured after 10 days; assay type: functional, organism-based; settings: time 10.0 day
MHCC97 [8] = experiment: Antimetastatic activity against human MHCC97 cells xenografted in SCID mouse assessed as decrease in liver metastasis at 40 mg/kg, ip administered once every 3 days and measured after 10 days; assay type: functional, organism-based; settings: time 10.0 day
MHCC97 [9] = experiment: Antitumor activity in human MHCC97 cells xenografted in SCID mouse assessed as reduction in infiltration of inflammatory cells in left middle lobe of liver at 20 mg/kg, ip measured after 30 days by H and E staining based immunohistochemical analysis; assay type: functional, organism-based; settings: time 30.0 day
MHCC97 [10] = experiment: Antitumor activity in human MHCC97 cells xenografted in SCID mouse assessed as suppression of tumor growth at 20 mg/kg, ip administered once every 3 day for 30 days by bioluminescence analysis; assay type: functional, organism-based; settings: time 30.0 day
[11] = Toxicity in SCID mouse xenografted with human MHCC97 cells assessed as increase in body weight at 40 mg/kg, ip administered once every 3 day for 30 days; assay type: organism-based; settings: in vivo, 720 h, time 30 day
HeLa [12] = experiment: Antiproliferative activity against human HeLa cells at 20 uM incubated for 24 hrs by alamar blue assay; assay type: functional, cell-based
HepG2 = experiment: Antiproliferative activity against human HepG2 cells at 20 uM incubated for 24 hrs by alamar blue assay; assay type: functional, cell-based
MHCC97 [13] = experiment: Antiproliferative activity against human MHCC97 cells at 20 uM incubated for 24 hrs by alamar blue assay; assay type: functional, cell-based
SK-HEP1 [14] = experiment: Antiproliferative activity against human SK-HEP1 cells at 20 uM incubated for 24 hrs by alamar blue assay; assay type: functional, cell-based
Huh-7 = experiment: Antiproliferative activity against human Huh-7 cells at 20 uM incubated for 24 hrs by alamar blue assay; assay type: functional, cell-based
SK-HEP1 [15] = experiment: Antiproliferative activity against human SK-HEP1 cells assessed as increase in miR-106b-5p level at 20 uM by qRT-PCR analysis; assay type: functional, cell-based
SK-HEP1 [16] = experiment: Antiproliferative activity against human SK-HEP1 cells assessed as decrease in miR135a-5p level at 20 uM by qRT-PCR analysis; assay type: functional, cell-based
SK-HEP1 [17] = experiment: Antiproliferative activity against human SK-HEP1 cells assessed as increase in miR-21-5p level at 20 uM by qRT-PCR analysis; assay type: functional, cell-based
SK-HEP1 [18] = experiment: Antiproliferative activity against human SK-HEP1 cells assessed as increase in miR-22-5p level at 20 uM by qRT-PCR analysis; assay type: functional, cell-based
SK-HEP1 [19] = experiment: Antiproliferative activity against human SK-HEP1 cells assessed as decrease in miR-30a-5p level at 20 uM by qRT-PCR analysis; assay type: functional, cell-based
SK-HEP1 [20] = experiment: Antiproliferative activity against human SK-HEP1 cells assessed as increase in miR-26a-5p level at 20 uM by qRT-PCR analysis; assay type: functional, cell-based
MHCC97 [21] = experiment: Antimetastatic activity against human MHCC97 cells xenografted in SCID mouse assessed as decrease in liver metastasis at 20 mg/kg, ip administered once every 3 days and measured after 10 days; assay type: functional, organism-based; settings: time 10.0 day

Row | SMILES | IC50 [1] | IC50 (SK-HEP1 [2]) | also measured
1 | COC(=O)c1cc2c(c(OC)c1-c1ccc(N(C)S(C)(=O)=O)cc1)OCO2 | 75.9 µM | 47 µM | –
2 | COC(=O)c1cc2c(c(OC)c1-c1ccc(N(C)C(=O)CCCCCNC(=O)CCCC[C@@H]3SC[C@@H]4NC(=O)N[C@@H]43)cc1)OCO2 | – | – | Activity (Homo sapiens): inactive; Activity (SK-HEP1 [3]): Active; inhibition (SK-HEP1 [4]): Active; Activity [5]: inactive
3 | COC(=O)c1cc2c(c(OC)c1-c1ccc(N(C)C(=O)CN)cc1)OCO2 | > 100 µM | > 100 µM | –
4 | COc1c2c(cc(C(=O)Nc3ccccc3I)c1-c1ccc(N(C)C)cc1)OCO2 | 56.9 µM | 35.8 µM | –
5 | COC(=O)c1cc2c(c(OC)c1-c1ccc(N(C)S(=O)(=O)c3ccc(F)cc3)cc1)OCO2 | 67.9 µM | 31.7 µM | –
6 | CNc1ccc(-c2c(C(=O)OC)cc3c(c2OC)OCO3)cc1 | 67.2 µM | 24.4 µM | IC50 (HeLa [6]): 15.6 µM; Activity (SK-HEP1 [3]): Active; inhibition (SK-HEP1 [4]): Active
7 | COC(=O)c1cc2c(c(OC)c1-c1ccc(N(C)S(=O)(=O)c3ccc([N+](=O)[O-])cc3)cc1)OCO2 | 69.3 µM | 34.2 µM | –
8 | COc1c2c(cc(C(=O)NCc3ccccc3)c1-c1ccc(N(C)C)cc1)OCO2 | 56.4 µM | 23.6 µM | IC50 (HeLa [6]): 21.9 µM
9 | COC(=O)c1cc2c(c(OC)c1-c1ccc(N(C)C)cc1)OCO2 | 68.5 µM | 29.9 µM | –
10 | CNC(=O)c1cc(Oc2ccc(NC(=O)Nc3ccc(Cl)c(C(F)(F)F)c3)cc2)ccn1 [SORAFENIB] | – | – | Activity (MHCC97 [7]): Active; Activity (MHCC97 [8]): Active; Activity (MHCC97 [9]): Active; Activity (MHCC97 [10]): Active; Activity [11]: Toxic
11 | COC(=O)c1cc2c(c(OC)c1-c1ccc(N(C)S(=O)(=O)c3ccc(Br)cc3)cc1)OCO2 | 62.4 µM | 28.7 µM | –
12 | CCN(CC)CCNC(=O)c1cc2c(c(OC)c1-c1ccc(N(C)C)cc1)OCO2 | > 100 µM | > 100 µM | –
13 | COC(=O)c1cc2c(c(OC)c1-c1ccc(N(C)S(=O)(=O)c3ccccc3)cc1)OCO2 | 61.4 µM | 26.7 µM | IC50 (HeLa [6]): 19.5 µM
14 | COC(=O)c1cc2c(c(OC)c1-c1ccc(N(C)C(=O)CN(C)C(=O)OC(C)(C)C)cc1)OCO2 | > 100 µM | 89.7 µM | –
15 | COC(=O)c1cc2c(c(OC)c1-c1ccc(N(C)C(=O)[C@H](C)NC(=O)OC(C)(C)C)cc1)OCO2 | 59.5 µM | 40.9 µM | –
16 | COc1c2c(cc(C(=O)Nc3ccccc3)c1-c1ccc(N(C)C)cc1)OCO2 | 58.5 µM | 38.4 µM | –
17 | COC(=O)c1cc2c(c(OC)c1-c1ccc(N(C)C(=O)c3ccccc3)cc1)OCO2 | 48.4 µM | 19.4 µM | Activity (HeLa [12]): Active; Activity (HepG2): Active; Activity (MHCC97 [13]): Active; Activity (SK-HEP1 [14]): Active; Activity (Huh-7): Active; IC50 (HeLa [6]): 13 µM
18 | COC(=O)c1cc2c(c(OC)c1-c1ccc(N(C)C(=O)CNC(=O)OC(C)(C)C)cc1)OCO2 | 63.2 µM | 39.6 µM | –
19 | COC(=O)c1cc2c(c(OC)c1-c1ccc(N(C)C(=O)[C@H](C)N)cc1)OCO2 | 74.2 µM | 64.7 µM | –
20 | COc1cccc(NC(=O)c2cc3c(c(OC)c2-c2ccc(N(C)C)cc2)OCO3)c1 | 64.4 µM | 31.6 µM | –
21 | CNCC(=O)N(C)c1ccc(-c2c(C(=O)OC)cc3c(c2OC)OCO3)cc1 | > 100 µM | > 100 µM | –
22 | CNc1ccc(-c2c(C(=O)OC)cc3c(c2OC)OCO3)cc1Cl | 50.3 µM | 22.7 µM | –
23 | CCn1cc(C(=O)O)c(=O)c2cc(F)c(N3CCNCC3)nc21 [ENOXACIN] | 72.4 µM | 25 µM | Activity (SK-HEP1 [15]): Active; Activity (MHCC97 [7]): Active; Activity (SK-HEP1 [16]): inactive; Activity (SK-HEP1 [17]): Active; Activity (MHCC97 [9]): Active; Activity (MHCC97 [10]): Active; Activity (SK-HEP1 [18]): Active; Activity (SK-HEP1 [19]): inactive; Activity (SK-HEP1 [20]): Active; IC50 (HeLa [6]): 25.8 µM; Activity (MHCC97 [21]): inactive
